Test results reported in article PMC4986899 (RNA, 2016).

Target: T1, E. coli MetK (Escherichia coli, UniProt P0A817)
T1 sequence (P0A817 2-384): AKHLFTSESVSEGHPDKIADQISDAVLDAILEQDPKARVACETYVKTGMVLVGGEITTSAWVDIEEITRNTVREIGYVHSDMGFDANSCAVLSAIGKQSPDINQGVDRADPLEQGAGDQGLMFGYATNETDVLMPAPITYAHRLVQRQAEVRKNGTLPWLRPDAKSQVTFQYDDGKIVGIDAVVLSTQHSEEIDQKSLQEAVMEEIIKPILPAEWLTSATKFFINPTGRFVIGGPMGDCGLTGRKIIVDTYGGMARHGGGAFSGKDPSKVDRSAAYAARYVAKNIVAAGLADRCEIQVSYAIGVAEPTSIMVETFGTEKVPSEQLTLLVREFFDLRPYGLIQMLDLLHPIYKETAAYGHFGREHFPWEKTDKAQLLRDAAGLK
Assay: preparative synthesis of […]-methyl S-adenosyl methionine
Format: biochemical
Conditions: co-substrate 1 mM L-methionine methyl-13C; pH 8.2, 100 mM KCl, 10 mM MgCl2, 30 °C

Nc1ncnc2c1ncn2[C@@H]1O[C@H](COP(=O)(O)OP(=O)(O)OP(=O)(O)O)[C@@H](O)[C@H]1O [ATP]
preparative synthesis of 13C-methyl S-adenosyl methionine: synthesized from methionine and ATP by the E. coli MetK enzyme
